Results published in paper PMC4388716, “An Exploratory Study on ^99mTc-RGD-BBN Peptide Scintimammography in the Assessment of Breast Malignant Lesions Compared to ^99mTc-3P4-RGD2” (PLoS ONE, 2015).

Legend:
[1] = cited from earlier work; for Effective radiation dose of conventional nuclear medical imaging agent examination: in vivo
From the text: The effective radiation dose to the body of ^99mTc-3P4-RGD2 and ^99mTc-RGD-BBN were 1.15 ± 0.13 mSv and 0.65 ± 0.07 mSv respectively ^9. According to the 2007 Recommendations of the International Commission on Radiological Protection (ICRP), radiation equivalent dose which occupational workers’ vital organs were exposed to should be less than 500mSv and radiosensitive organs should be less than 150mSv. In our study, the mean absorbed dose equivalent for the whole body was 2.02E-03 mSv / MBq in healthy males and 2.31E-03 mSv / MBq in healthy females. Compared with other clinical mar ...

breast malignant lesions = test: SPECT/CT scintimammography of patients with breast malignant tumors; assay type: in vivo, human; parameters: key to Visual uptake grading: grade 1 = no abnormal increased uptake; grade 2 = mildly increased or heterogeneous uptake; grade 3 = definite focal increased uptake; conditions: for Visual uptake grading: SPECT/CT 1 h p.i., 3 readers
From the text: All patients were sent to the ^99mTc-3P4-RGD2 and ^99mTc-RGD-BBN SMM on an individual basis. The time interval between two imaging procedures was 48–54 hr. Finally, ^99mTc-RGD-BBN and ^99mTc-3P4-RGD2 SMM results were compared with each other. To be included, a patient had to be without any other history of breast disease. Exclusion criteria included pregnancy, lactation and a body weight greater than 80 kg.
The 3P4-RGD2 and RGD-BBN were generously provided by the Medical Isotopes Research Center of Peking University in freeze-dried kits form. Na^99mTcO4 was obtained from a commercial ^99Mo/^99mTc generator (Beijing Atom High Tech Co., Ltd.). The kit for preparation of ^99mTc-3P4-RGD2 was formulated by containing, per millilitre, 20 μg of HYNIC-3P4-RGD2, 5 mg of TPPTS, 6.5 mg of tricine, 40 mg of mannitol, 38.5 mg of disodium succinate hexahydrate and 12.7 mg of succinic acid. Radiolabeling and quality control procedures for ^99mTc-3P4-RGD2 were performed as described previously ^4. The kit for preparation of ^99mTc-RGD-BBN was formulated by containing, per millilitre, 20 μg of HYNIC-RGD-BBN, 6 mg of TPPTS, 10 mg of tricine, 40 mg of mannitol, 38.5 mg of disodium succinate hexahydrate and 12.7 mg of succinic acid. Then 1 mL of Na^99mTcO4 solution in saline was added to each kit vial followed by 30 min incubation at 100°C. The quality control was conducted by radioactive thin layer chromatography (ITLC), counting the high labeling yield of about 95%. Both ^99mTc-3P4-RGD2 and ^99mTc-RGD-BBN with a mean radioactivity of 299 ± 30 MBq and 293 ± 32 MBq were administered via single intravenous bolus injection followed by a 10 mL saline flush. ^99mTc-3P4-RGD2 and ^99mTc-RGD-BBN was performed with SPECT/CT at 1 h after intravenous injection of radiotracers respectively on separate days.
SPECT: Emission images were acquired using a dual-head, large field-of-view scintillation camera (Precedence, Philips Healthcare), equipped with a low-energy, high-resolution and parallel-hole collimator. In all healthy volunteers, planar images in both anterior and posterior views were acquired at 10 min, 30 min, 1 h, 2 h, 4 h, 8 h and 24 h post-injection and were stored digitally, using ^99mTc with a 20% energy window centered on 140 keV and 128×128 matrix. The velocity of scanning was 15 cm/min. SPECT images in all the patients were acquired over 360° (180°per head) in supine position with raised arms during the imaging. Imaging with both radiotracers was performed using 6°angular steps in a 20 s time frame, with a 64×64 matrix size. Distance between the breast and detector was minimized. The position of the patient was recorded in detail and kept consistent to the greatest extent in the second SPECT scan to make sure that the two different SPECT images could be fused to the CT images.
CT images from neck to abdomen were acquired sequentially in a non-dedicated 3rd-generation scanner installed in the SPECT camera gantry, with a 10 mm slice thickness, a maximum current of 2.5 mA and a 140 kV potential. The patients just had one CT scan since ^99mTc-3P4-RGD2 and ^99mTc-RGD-BBN SPECT were undertaken on the same device.
All images were interpreted qualitatively by three experienced nuclear medicine radiologists who were unaware of the clinical history and other test results of all patients. Visual analysis was performed on a per-lesion basis and in a blinded fashion. A 3-point scale system was adopted to describe the uptake degree for breast lesions. […] Homogeneous uptake in both breasts was classified as grade 1. SMM was considered positive for malignancy if the visual score was ≥2. There was no disagreement between three radiologists in our study.

[99Tc].[C-]#[N+]CC(C)(C)OC.[C-]#[N+]CC(C)(C)OC.[C-]#[N+]CC(C)(C)OC.[C-]#[N+]CC(C)(C)OC.[C-]#[N+]CC(C)(C)OC.[C-]#[N+]CC(C)(C)OC [99mTc—MIBI]
Effective radiation dose of conventional nuclear medical imaging agent examination [1]: 7.05 mSv

O.O.O=P([O-])([O-])CP(=O)([O-])[O-].[99Tc+4] [99mTc—MDP]
Effective radiation dose of conventional nuclear medical imaging agent examination [1]: 5.92 mSv

[^99mTc (HYNIC-3PRGD2) (tricine) (TPPTS)] [99mTc-3P4-RGD2]
Visual uptake grading (breast malignant lesions; Patient 1: DCIS, R, 2.3 cm, αvβ3 -, GRPR +): 1
Visual uptake grading (breast malignant lesions; Patient 2: DCIS, L, 2.0 cm, αvβ3 +, GRPR +): 3
Visual uptake grading (breast malignant lesions; Patient 3: IDC, L, 5.1 cm, αvβ3 +, GRPR +): 3
Visual uptake grading (breast malignant lesions; Patient 4: IDC, R, 2.1 cm, αvβ3 +, GRPR -): 3
Visual uptake grading (breast malignant lesions; Patient 5: IDC, L, 5.8 cm, αvβ3 +, GRPR +): 3
Visual uptake grading (breast malignant lesions; Patient 6: IDC, L, 6.3 cm, αvβ3 +, GRPR +): 3
Malignant lesions detected by SPECT/CT (of 6 malignant lesions in 6 patients) (breast malignant lesions; SPECT/CT 1 h after i.v. injection, 4 IDC, 2 DCIS): five lesions with clear uptake and the other one with barely uptake
Effective radiation dose to the body ([1]; per examination (299 ± 30 MBq 99mTc-3P4-RGD2, 293 ± 32 MBq 99mTc-RGD-BBN i.v.)): 1.15 ± 0.13 mSv
